# Measurements from patent publication US20250066344A1 (BRISTOL-MYERS SQUIBB COMPANY, priority 2021, published 2025).
# Experiments:
# [1] = intravenous (IV) formulation; cited from earlier work
# [2] = target: T1, human RXFP1 (Homo sapiens, UniProt Q9HBX9); assay: RXFP1 cyclic adenosine monophosphate (cAMP) assay, hRXFP1 HEK293; type: cell-based; settings: HEK293 cells stably expressing human RXFP1; 30 min at room temperature; HTRF cAMP
# T1 construct: expressed in transfected cells
# T1 sequence (Q9HBX9 1-757): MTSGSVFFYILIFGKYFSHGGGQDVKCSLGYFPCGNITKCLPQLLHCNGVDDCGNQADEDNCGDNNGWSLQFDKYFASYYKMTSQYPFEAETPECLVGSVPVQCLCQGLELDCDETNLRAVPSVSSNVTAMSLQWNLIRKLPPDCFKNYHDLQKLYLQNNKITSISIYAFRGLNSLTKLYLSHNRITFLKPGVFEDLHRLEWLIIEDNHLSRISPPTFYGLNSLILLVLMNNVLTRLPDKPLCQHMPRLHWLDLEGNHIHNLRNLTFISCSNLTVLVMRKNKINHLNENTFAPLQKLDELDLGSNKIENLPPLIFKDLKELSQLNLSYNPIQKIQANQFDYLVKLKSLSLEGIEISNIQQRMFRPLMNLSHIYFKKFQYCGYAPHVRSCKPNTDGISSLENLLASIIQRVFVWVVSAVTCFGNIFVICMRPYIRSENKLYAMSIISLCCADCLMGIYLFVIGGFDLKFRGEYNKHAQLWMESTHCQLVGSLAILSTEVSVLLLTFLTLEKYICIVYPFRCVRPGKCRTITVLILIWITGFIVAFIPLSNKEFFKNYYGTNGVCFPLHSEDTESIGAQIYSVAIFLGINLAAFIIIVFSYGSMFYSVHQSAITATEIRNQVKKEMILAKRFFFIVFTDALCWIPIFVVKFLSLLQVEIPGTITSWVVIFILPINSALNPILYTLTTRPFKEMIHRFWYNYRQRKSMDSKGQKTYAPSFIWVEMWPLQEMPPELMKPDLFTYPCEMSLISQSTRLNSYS
# Summary of the method: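 HEK293 cells stably expressing human RXFP1 were exposed to compounds (0.010 nM–50 μM, 2% DMSO) for 30 min at room temperature in HBSS/HEPES buffer with 0.5 mM IBMX. Intracellular cAMP was measured by HTRF against a cAMP standard curve; EC50 from 4-parameter logistic fit.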
EC50 [2],Compound,first-phase pharmacokinetic half-life [1]
260 nM,"COc1ccc(-c2cnc3n2CCN(CCO)C3)cc1C(=O)Nc1cc2c(cc1C(=O)Nc1ccc(F)c(C(F)(F)F)c1)OC(F)(F)O2 [Example 80, 2,2-difluoro-N-(4-fluoro-3-(trifluoromethyl)phenyl)-6-(5-(7-(2-hydroxyethyl)-5,6,7,8-tetrahydroimidazo[1,2-a]pyrazin-3-yl)-2-methoxybenzamido) benzo[d][1,3]dioxole-5-carboxamide]",
646 nM,"COc1ccc(-c2cnc3n2CCNC3)cc1C(=O)Nc1cc2c(cc1C(=O)Nc1ccc(F)c(C(F)(F)F)c1)OC(F)(F)O2 [Example 62, 2,2-difluoro-N-(4-fluoro-3-(trifluoromethyl)phenyl)-6-(2-methoxy-5-(5,6,7,8-tetrahydroimidazo[1,2-a]pyrazin-3-yl)benzamido)benzo[d] [1,3]dioxole-5-carboxamide]",
282 nM,"COc1ccc(-c2cnc3n2CCN(C2COC2)C3)cc1C(=O)Nc1cc2c(cc1C(=O)Nc1ccc(F)c(C(F)(F)F)c1)OC(F)(F)O2 [Example 81, 2,2-difluoro-N-(4-fluoro-3-(trifluoromethyl)phenyl)-6-(2-methoxy-5-(7-(oxetan-3-yl)-5,6,7,8-tetrahydroimidazo[1,2-a]pyrazin-3-yl)benzamido)benzo[d] [1,3]dioxole-5-carboxamide]",

# More lines, now with the values behind:
Compound,EC50 [2],first-phase pharmacokinetic half-life [1]
Serelaxin,,5.4 min
"COc1ccc(-c2nc3c(s2)CN(CC(N)=O)CC3)cc1C(=O)Nc1cc2c(cc1C(=O)Nc1ccc(F)c(C(F)(F)F)c1)OC(F)(F)O2 [Example 53, 6-(5-(5-(2-amino-2-oxoethyl)-4,5,6,7-tetrahydrothiazolo[5,4-c]pyridin-2-yl)-2-methoxybenzamido)-2,2-difluoro-N-(4-fluoro-3-(trifluoromethyl)phenyl)benzo[d][1,3]dioxole-5-carboxamide]",33 nM,
"COc1ccc(C2=NOC3CC(O)CC23)cc1C(=O)Nc1cc2nc(C)sc2cc1C(=O)Nc1ccc(F)c(C(F)(F)F)c1 (single isomer, unassigned) [Example 27, N-(4-fluoro-3-(trifluorometh-yl)phenyl)-5-(5-(5-hydroxy-3a,5,6,6a-tetra-hydro-4H-cyclopenta[d]isoxazol-3-yl)-2-methoxy-benzamido)-2-methylbenzo [d]thiazole-6-carboxamide]",2200 nM,
"COc1ccc(C2=NOC3CC(COP(=O)(O)O)CC23)cc1C(=O)Nc1cc2nc(C)sc2cc1C(=O)Nc1ccc(F)c(C(F)(F)F)c1 (stereo not shown) [Example 9, (3-(3-((6-((4-fluoro-3-(trifluorometh-yl)phenyl)car-bamoyl)-2-methylbenzo [d]thiazol-5-yl)carbamo-yl)-4-meth-oxyphenyl)-3a,5,6,6a-tetra-hydro-4H-cyclopenta[d]isoxazol-5-yl)methyldi-hydrogen phosphate]",110 nM,
"COc1ccc(-c2cncc(S(=O)(=O)NC(C)(C)C)c2)cc1C(=O)Nc1cc2c(cc1C(=O)Nc1ccc(F)c(C(F)(F)F)c1)OC(F)(F)O2 [Example 70, 6-(5-(5-(N-(tert-butyl)sulfamoyl)pyridin-3-yl)-2-methoxybenzamido)-2,2-difluoro-N-(4-fluoro-3-(trifluoromethyl)phenyl) benzo[d][1,3]dioxole-5-carboxamide]",132 nM,
"COc1ccc(C2=NOC3CC(O)CC23)cc1C(=O)Nc1cc2nc(C)sc2cc1C(=O)Nc1ccc(F)c(C(F)(F)F)c1 (single isomer, unassigned) [Example 24, N-(4-fluoro-3-(trifluoro-methyl)phen-yl)-5-(5-(5-hydroxy-3a,5,6,6a-tetrahydro-4H-cyclopenta [d]isoxazol-3-yl)-2-methoxy-benzamido)-2-methylbenzo [d]thiazole-6-carboxamide]",750 nM,
"COCC1CC(c2ccc(OC)c(C(=O)Nc3cc4c(cc3C(=O)Nc3ccc(F)c(C(F)(F)F)c3)OC(F)(F)O4)c2)=NO1 (stereo not shown) [Example 83, 2,2-difluoro-N-(4-fluoro-3-(trifluoromethyl)phenyl)-6-(2-methoxy-5-(5-(methoxymethyl)-4,5-dihydroisoxazol-3-yl)benzamido)benzo[d] [1,3]dioxole-5-carboxamide]",399 nM,
